Test results taken from patent US10138238B2, “Pesticidally active polycyclic derivatives with sulfur containing substituents” (Syngenta Participations AG, priority 2015, dated 2018).

What was measured:
Format in all cases: in vivo
[1] = system: Thrips tabaci (Onion Thrips); experiment: Example B10: Thrips tabaci feeding/contact activity; conditions: 144 h, application rate of 200 ppm, 6 days after infestation
Method: (§1) Sunflower leaf discs were placed on agar in 24-well microtiter plates and sprayed with aqueous test solutions prepared from 10'000 ppm DMSO stock solutions. After drying the leaf discs were infested with a thrips population of mixed ages. The samples were assessed for mortality 6 days after infestation.

[2] = system: Spodoptera littoralis (Egyptian Cotton Leaf Worm); experiment: Example B7: Spodoptera littoralis, cotton leaf discs, L1 larvae; conditions: foliar, 72 h, application rate of 200 ppm, 3 days after infestation
Method: (§2) Cotton leaf discs were placed onto agar in 24-well microtiter plates and sprayed with aqueous test solutions prepared from 10'000 ppm DMSO stock solutions. After drying the leaf discs were infested with five L1 larvae. The samples were assessed for mortality, anti-feeding effect, and growth inhibition in comparison to untreated samples 3 days after infestation. Control of Spodoptera littoralis by a test sample is given when at least one of the categories mortality, anti-feedant effect, and growth inhibition is higher than the untreated sample.

[3] = system: Spodoptera littoralis (Egyptian Cotton Leaf Worm); experiment: Example B13: Breakpoint (BP80) against Spodoptera littoralis; conditions: lowest concentration which gives 80% larval mortality; larval feeding/contact
Method: as §2
(§3) Insecticidal action against Diabrotica balteata (Corn root worm), Plutella xylostella (Diamond black moth), and Spodoptera littoralis (Egyptian cotton leaf worm). The tests were carried out as described in biological examples B2, B6 and B7, respectively, with the larval feeding/contact activity being reported as Breakpoint (BP80) values in parts per million (i.e. the lowest concentration which gives 80% larval mortality).

[4] = system: Diabrotica balteata (Corn Root Worm); experiment: Example B2: Diabrotica balteata, maize sprouts, L2 larvae; conditions: 96 h, application rate of 200 ppm, 4 days after infestation, read-out: effect in at least one of the two categories (mortality or growth inhibition)
Method: (§4) Maize sprouts placed onto an agar layer in 24-well microtiter plates were treated with aqueous test solutions prepared from 10'000 ppm DMSO stock solutions by spraying. After drying, the plates were infested with L2 larvae (6 to 10 per well). The samples were assessed for mortality and growth inhibition in comparison to untreated samples 4 days after infestation. The following compounds gave an effect of at least 80% in at least one of the two categories (mortality or growth inhibition) at an application rate of 200 ppm: P1, P2, P3, P4, P5, P6, P7, P8, P9, P10, P11, P12, P13, P14, and P15.

[5] = system: Plutella xylostella (Diamond Back Moth); experiment: Example B6: Plutella xylostella, artificial diet, L2 larvae; conditions: 120 h, application rate of 200 ppm, 5 days after infestation, read-out: effect in at least one of the two categories (mortality or growth inhibition)
Method: (§5) 24-well microtiter plates with artificial diet were treated with aqueous test solutions prepared from 10'000 ppm DMSO stock solutions by pipetting. After drying, the plates were infested with L2 larvae (10 to 15 per well). The samples were assessed for mortality and growth inhibition in comparison to untreated samples 5 days after infestation. The following compounds gave an effect of at least 80% in at least one of the two categories (mortality or growth inhibition) at an application rate of 200 ppm: P1, P2, P3, P4, P6, P8, P9, P10, P11, P12, P13, P14 and P15.

[6] = system: Euschistus heros (Neotropical Brown Stink Bug); experiment: Example B3: Euschistus heros, soybean leaves, N2 nymphs; conditions: 120 h, application rate of 200 ppm, 5 days after infestation, read-out: effect in at least one of the two categories (mortality or growth inhibition)
Method: Soybean leaves on agar in 24-well microtiter plates were sprayed with aqueous test solutions prepared from 10'000 ppm DMSO stock solutions. After drying the leaves were infested with N2 nymphs. The samples were assessed for mortality and growth inhibition in comparison to untreated samples 5 days after infestation. The following compounds gave an effect of at least 80% in at least one of the two categories (mortality or growth inhibition) at an application rate of 200 ppm: • P1, P3, P8, P9, P10, P13, P14, and P15

[7] = system: Plutella xylostella (Diamond black moth); experiment: Example B13: Breakpoint (BP80) against Plutella xylostella; conditions: lowest concentration which gives 80% larval mortality; larval feeding/contact
Method: as §5, §3

[8] = system: Diabrotica balteata (Corn Root Worm); experiment: Example B13: Breakpoint (BP80) against Diabrotica balteata; conditions: lowest concentration which gives 80% larval mortality; larval feeding/contact
Method: as §4, §3

[9] = system: Myzus persicae (Green Peach Aphid); experiment: Example B5: Myzus persicae systemic activity; conditions: 144 h, test rate of 24 ppm, pea seedling roots, 6 days
Method: Roots of pea seedlings infested with an aphid population of mixed ages were placed directly into aqueous test solutions prepared from 10'000 DMSO stock solutions. The samples were assessed for mortality 6 days after placing seedlings into test solutions.

[10] = system: Myzus persicae (Green Peach Aphid); experiment: Example B4: Myzus persicae feeding/contact activity; conditions: 144 h, application rate of 200 ppm, 6 days after infestation
Method: Sunflower leaf discs were placed onto agar in a 24-well microtiter plate and sprayed with aqueous test solutions prepared from 10'000 ppm DMSO stock solutions. After drying, the leaf discs were infested with an aphid population of mixed ages. The samples were assessed for mortality 6 days after infestation.

[11] = system: Tetranychus urticae (Two-Spotted Spider Mite); experiment: Example B9: Tetranychus urticae feeding/contact activity; conditions: 192 h
Method: as §1, with “Bean” for “Sunflower”, “discs” for “discs were placed”, “were” for “and”, “mite” for “thrips”, “on mixed population (mobile stages) 8” for “6”

[12] = system: Spodoptera littoralis (Egyptian Cotton Leaf Worm); experiment: Example B8: Spodoptera littoralis systemic activity; conditions: 144 h, test rate of 12.5 ppm, lettuce, 6 days after infestation, read-out: effect in at least one of the three categories (mortality, anti-feeding, or growth inhibition)
Source text: Test compounds were applied by pipette from 10'000 ppm DMSO stock solutions into 24-well plates and mixed with agar. Lettuce seeds were placed onto the agar and the multi well plate was closed by another plate which contained also agar. After 7 days the compound was absorbed by the roots and the lettuce grew into the lid plate. The lettuce leaves were then cut off into the lid plate. Spodoptera eggs were pipetted through a plastic stencil onto a humid gel blotting paper and the lid plate was closed with it. The samples were assessed for mortality, anti-feedant effect and growth inhibition in comparison to untreated samples 6 days after infestation. The following compounds gave an effect of at least 80% in at least one of the three categories (mortality, anti-feeding, or growth inhibition) at a test rate of 12.5 ppm: • P10, P13, P14 and P15.

In the case of `CCS(=O)(=O)c1ccc(-n2ccc(C(F)(F)F)n2)nc1-c1nc2cc(C(F)(F)F)ncc2n1C` [Compound P3, 2-[3-ethylsulfonyl-6-[3-(trifluoromethyl)pyrazol-1-yl]-2-pyridyl]-3-methyl-6-(trifluoromethyl)imidazo[4,5-c]pyridine], the mortality at 200 ppm [1] is reported as no less than 80%, the percent control (mortality, anti-feedant effect or growth inhibition) at 200 ppm [2] is reported as no less than 80% and the “BP80 Values Spodoptera littoralis” value [3] is reported as 0.8 ppm. It also gave a percent effect (mortality or growth inhibition) at 200 ppm [4] of no less than 80%, a percent effect (mortality or growth inhibition) at 200 ppm [5] of no less than 80% and a percent effect (mortality or growth inhibition) at 200 ppm [6] of no less than 80%. For the same molecule, the “BP80 Values Plutella xylostella” value [7] was 12 ppm and the “BP80 Values Diabrotica balteata” value [8] was 0.8 ppm.

`CCS(=O)(=O)c1ccc(-c2ncccn2)nc1-c1nc2cc(SC(F)(F)F)ncc2n1C` [Compound P10, 2-(3-ethylsulfonyl-6-pyrimidin-2-yl-2-pyridyl)-3-methyl-6-(trifluoromethylsulfanyl)imidazo[4,5-c]pyridine] showed a mortality at 24 ppm [9] of no less than 80%, a mortality at 200 ppm [1] of no less than 80% and a mortality at 200 ppm [10] of no less than 80%. It also gave a mortality at 200 ppm [11] of no less than 80%, a percent control (mortality, anti-feedant effect or growth inhibition) at 200 ppm [2] of no less than 80% and a percent effect (mortality or growth inhibition) at 200 ppm [4] of no less than 80%. It also gave a percent effect (mortality or growth inhibition) at 200 ppm [5] of no less than 80%, a percent effect (mortality, anti-feeding or growth inhibition) at 12.5 ppm [12] of no less than 80% and a percent effect (mortality or growth inhibition) at 200 ppm [6] of no less than 80%.
